In brackets after ≈: the same amount, converted by molar mass.
How the values were obtained:
COX-2 = target: T1, COX-2 (Mus musculus, UniProt Q05769); experiment: Evaluation of COX-2 activity: PGE2 formation in aspirin-treated, LPS-stimulated mouse peritoneal macrophages; assay type: cell-based; conditions: for IC50: read-out: IC50, μg/ml COX-2 (converted)
T1 sequence (Q05769 18-604): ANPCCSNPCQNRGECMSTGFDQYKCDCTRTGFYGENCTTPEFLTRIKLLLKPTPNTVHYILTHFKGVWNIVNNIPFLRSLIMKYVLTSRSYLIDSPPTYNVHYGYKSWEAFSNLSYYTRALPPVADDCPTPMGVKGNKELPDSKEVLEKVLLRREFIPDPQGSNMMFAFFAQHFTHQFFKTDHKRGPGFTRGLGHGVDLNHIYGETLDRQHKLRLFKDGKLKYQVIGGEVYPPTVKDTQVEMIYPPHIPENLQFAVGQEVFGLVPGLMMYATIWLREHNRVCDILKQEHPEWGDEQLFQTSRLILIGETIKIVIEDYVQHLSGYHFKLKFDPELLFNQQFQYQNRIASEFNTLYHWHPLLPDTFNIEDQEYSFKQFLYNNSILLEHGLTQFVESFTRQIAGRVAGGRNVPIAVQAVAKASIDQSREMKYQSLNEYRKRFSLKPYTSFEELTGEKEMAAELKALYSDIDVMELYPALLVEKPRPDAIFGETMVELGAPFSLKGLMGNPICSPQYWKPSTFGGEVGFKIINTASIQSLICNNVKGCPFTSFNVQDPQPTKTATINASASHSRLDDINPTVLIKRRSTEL
In short: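 C57BL/6 peritoneal macrophages treated with 500 μM aspirin to block COX-1, adhered, then stimulated with 10 μg/ml LPS for 16 h at 37 °C to induce COX-2.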

COX-1 = target: T2, COX-1 (Mus musculus, UniProt P22437); experiment: Evaluation of COX-1 activity: PGE2 formation in mouse peritoneal macrophages without aspirin and LPS treatment; assay type: cell-based; conditions: for IC50: read-out: IC50, μg/ml COX-1 (converted)
T2 sequence (P22437 27-602): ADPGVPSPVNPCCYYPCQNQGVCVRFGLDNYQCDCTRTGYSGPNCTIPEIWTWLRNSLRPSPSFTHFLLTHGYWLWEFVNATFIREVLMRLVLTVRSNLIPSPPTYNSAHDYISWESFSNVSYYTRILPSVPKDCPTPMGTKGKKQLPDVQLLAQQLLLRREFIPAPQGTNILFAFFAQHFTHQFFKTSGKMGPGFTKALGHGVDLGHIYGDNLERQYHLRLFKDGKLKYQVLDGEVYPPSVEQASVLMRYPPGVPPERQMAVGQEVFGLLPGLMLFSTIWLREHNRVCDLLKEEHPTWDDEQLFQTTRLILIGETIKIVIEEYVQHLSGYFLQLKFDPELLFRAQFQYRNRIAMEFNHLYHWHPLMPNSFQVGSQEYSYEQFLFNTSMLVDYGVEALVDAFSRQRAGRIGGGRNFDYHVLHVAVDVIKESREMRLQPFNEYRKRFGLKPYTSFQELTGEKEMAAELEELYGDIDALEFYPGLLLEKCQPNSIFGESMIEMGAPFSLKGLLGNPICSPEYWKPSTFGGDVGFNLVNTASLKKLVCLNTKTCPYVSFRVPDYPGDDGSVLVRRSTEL
In short: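 Peritoneal macrophages from C57BL/6 mice, without aspirin or LPS treatment, were plated at 1×10^6 cells/ml and fixed 2 h at 37 °C. Cells were preincubated 10 min, then given 10 μM arachidonic acid plus compound for 10 min; PGE2 was measured by RIA or EIA. IC50 came from 4–5 concentrations.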

IC50, μg/ml COX-2 (COX-2) [µg/mL] | melting point [°C] | IC50, μg/ml COX-1 (COX-1) [µg/mL] | IC50 (COX-2) [µM] | IC50 (COX-1) [µM] | Compound
0.05 (≈ 0.121 µM) | 200 to 201 | 300 (≈ 727 µM) |  |  | CC1(C)OC(c2ccc(S(C)(=O)=O)c(Cl)c2)=C(c2cc(F)cc(F)c2)C1=O [Example 362]
0.05 (≈ 0.134 µM) | 159 to 160 | 5 (≈ 13.4 µM) |  |  | Cc1ccc(F)cc1C1=C(c2ccc(S(C)(=O)=O)cc2)OC(C)(C)C1=O [Example 94]
0.03 (≈ 0.0837 µM) | 182 to 183 | 50 (≈ 140 µM) |  |  | CC1(C)OC(c2ccc(S(C)(=O)=O)cc2)=C(c2ccccc2O)C1=O [Example 105]
0.101 (≈ 0.278 µM) | 120 to 121 | >10 |  |  | CCC1(C)OC(c2ccc(S(N)(=O)=O)cc2)=C(c2ccsc2)C1=O (stereo not drawn) [Example 44, 5-{4-(Aminosulfonyl)phenyl}-2-ethyl-2-methyl-4-(3-thienyl)-3(2H)-furanone]
0.03 (≈ 0.078 µM) | 96 to 97 | 3 (≈ 7.8 µM) |  |  | CCC1(CC)OC(c2ccc(S(C)(=O)=O)cc2)=C(c2ccc(C)cc2)C1=O [Example 245]
0.03 (≈ 0.0793 µM) | 182 to 183 | 200 (≈ 529 µM) |  |  | CC1(C)OC(c2ccc(S(C)(=O)=O)c(F)c2)=C(c2cccc(F)c2)C1=O [Example 275]
0.057 (≈ 0.171 µM) | 156 to 157 | >10 |  |  | CC1(C)OC(c2ccc(S(N)(=O)=O)cc2)=C(c2ccco2)C1=O [Example 160]
0.5 (≈ 1.25 µM) | 142 to 143 | 50 (≈ 125 µM) |  |  | CC1(C)OC(c2ccc(S(C)(=O)=O)cc2)=C(c2ccc(C(C)(C)C)cc2)C1=O [Example 76]
0.001 (≈ 0.00243 µM) | 208 to 209 | 0.12 (≈ 0.291 µM) |  |  | CC1(C)OC(c2ccc(S(N)(=O)=O)cc2)=C(c2ccc(Cl)c(Cl)c2)C1=O [Example 127]
0.03 (≈ 0.0757 µM) | 118 to 119 | 20 (≈ 50.5 µM) |  |  | CC1(C)OC(c2ccc(S(C)(=O)=O)cc2F)=C(c2cc(F)cc(F)c2)C1=O [Example 326]
0.03 (≈ 0.0757 µM) | 140 to 141 | 30 (≈ 75.7 µM) |  |  | CC1(C)OC(c2ccc(S(C)(=O)=O)c(F)c2)=C(c2cc(F)ccc2F)C1=O [Example 282]
3 (≈ 9.66 µM) | 109 to 110 | 50 (≈ 161 µM) |  |  | CSc1ccc(C2=C(c3ccccc3)C(=O)C(C)(C)O2)cc1 [Example 167]
0.03 (≈ 0.0729 µM) | 187 to 188 | 3 (≈ 7.29 µM) |  |  | CC1(C)OC(c2ccc(S(C)(=O)=O)cc2)=C(c2cc(Cl)cc(Cl)c2)C1=O [Example 75]
0.02 (≈ 0.0507 µM) | 139 to 140 | 3 (≈ 7.6 µM) |  |  | CC1(C)OC(c2ccc(S(C)(=O)=O)cc2F)=C(c2cccc(Cl)c2)C1=O [Example 322]
 | 168 to 170 |  | 0.0654 | 6.54 | CCC1(C)OC(c2ccc(S(C)(=O)=O)cc2)=C(c2ccc(Cl)c(C(F)(F)F)c2)C1=O (stereo not drawn) [Example 198]
 | 158 to 160 |  | 0.0742 | 7.42 | CCC1(C)OC(c2ccc(S(C)(=O)=O)cc2)=C(c2ccc(OC)c(F)c2)C1=O (stereo not drawn) [Example 214]
0.002 (≈ 0.00502 µM) | 84 to 85 | 5 (≈ 12.5 µM) |  |  | CCCCc1ccc(C2=C(c3ccc(S(C)(=O)=O)cc3)OC(C)(C)C2=O)cc1 [Example 97]

IC50, μg/ml COX-2 (COX-2) [µg/mL] | melting point [°C] | IC50, μg/ml COX-1 (COX-1) [µg/mL] | IC50 (COX-2) [µM] | IC50 (COX-1) [µM] | Compound
0.03 (≈ 0.0793 µM) | 157 to 158 | 10 (≈ 26.4 µM) |  |  | CC1(C)OC(c2ccc(S(C)(=O)=O)cc2F)=C(c2cccc(F)c2)C1=O [Example 323]
0.3 (≈ 0.712 µM) | 154 to 155 | 90 (≈ 214 µM) |  |  | CC1(C)OC(c2ccc(S(C)(=O)=O)c(Br)c2)=C(c2ccccc2)C1=O [Example 341, 5-{3-Bromo-4-(methylsulfonyl)phenyl}-2,2-dimethyl-4-phenyl-3(2H)-furanone]
0.02 (≈ 0.0483 µM) | 173 to 174 | 200 (≈ 483 µM) |  |  | CC1(C)OC(c2ccc(S(N)(=O)=O)c(Cl)c2)=C(c2cc(F)cc(F)c2)C1=O [Example 371]
0.06 (≈ 0.159 µM) | 193 to 194 | 8 (≈ 21.2 µM) |  |  | CC1(C)OC(c2ccc(S(N)(=O)=O)c(Cl)c2)=C(c2ccccc2)C1=O [Example 367, 5-{4-(Aminosulfonyl)-3-chlorophenyl}-2,2-dimethyl-4-phenyl-3(2H)-furanone]
0.03 (≈ 0.078 µM) | 83 to 84 | 30 (≈ 78 µM) |  |  | CC(C)c1cccc(C2=C(c3ccc(S(C)(=O)=O)cc3)OC(C)(C)C2=O)c1 [Example 86]
0.03 (≈ 0.0684 µM) | 121 to 122 | 3 (≈ 6.84 µM) |  |  | CCC1(CC)OC(c2ccc(S(C)(=O)=O)cc2)=C(c2ccc(C(F)(F)F)cc2)C1=O [Example 246]
 | 45 to 46 |  | 0.118 | 47.1 | CCC1(C)OC(c2ccc(S(C)(=O)=O)cc2)=C(c2cccc(C(F)(F)F)c2)C1=O (stereo not drawn) [Example 194]
0.05 (≈ 0.126 µM) | 122 to 123 | 50 (≈ 126 µM) |  |  | CC1(C)OC(c2ccc(S(N)(=O)=O)c(F)c2)=C(c2ccccc2Cl)C1=O [Example 304]
 | 48 to 49 |  | 0.081 | 8.1 | CCC1(C)OC(c2ccc(S(C)(=O)=O)cc2)=C(c2cccc(C)c2)C1=O (stereo not drawn) [Example 193]
0.02 (≈ 0.0486 µM) | 188 to 189 | 8 (≈ 19.5 µM) |  |  | CC1(C)OC(c2ccc(S(C)(=O)=O)c(Cl)c2)=C(c2cccc(Cl)c2)C1=O [Example 358]
0.02 (≈ 0.0485 µM) | 162 to 163 | 7 (≈ 17 µM) |  |  | CC1(C)OC(c2ccc(S(N)(=O)=O)c(Cl)c2)=C(c2cccc(Cl)c2)C1=O [Example 368]
0.003 (≈ 0.00758 µM) | 164 to 165 | 0.3 (≈ 0.758 µM) |  |  | CC1(C)OC(c2ccc(S(N)(=O)=O)c(F)c2)=C(c2cccc(Cl)c2)C1=O [Example 305]
0.09 (≈ 0.23 µM) | 136 to 137 | 200 (≈ 510 µM) |  |  | CNS(=O)(=O)c1ccc(C2=C(c3ccccc3)C(=O)C(C)(C)O2)cc1Cl [Example 372, 5-{3-Chloro-4-(N-methylaminosulfonyl)phenyl}-2,2-dimethyl-4-phenyl-3(2H)-furanone]
0.2 (≈ 0.531 µM) | 168 to 170 | 30 (≈ 79.7 µM) |  |  | CC1(C)OC(c2ccc(S(C)(=O)=O)cc2)=C(c2ccc(C=O)s2)C1=O [Example 121]
0.0087 (≈ 0.0211 µM) | 209 to 210 | 1.01 (≈ 2.45 µM) |  |  | CC1(C)OC(c2ccc(S(N)(=O)=O)cc2)=C(c2cc(Cl)cc(Cl)c2)C1=O [Example 149]
0.03 (≈ 0.083 µM) | 79 to 81 | 5 (≈ 13.8 µM) |  |  | CC1(C)OC(c2ccc(S(N)(=O)=O)cc2F)=C(c2ccccc2)C1=O [Example 332, 5-{4-(Aminosulfonyl)-2-fluorophenyl}-2,2-dimethyl-4-phenyl-3(2H)-furanone]
0.03 (≈ 0.0832 µM) | 190 to 191 | 20 (≈ 55.5 µM) |  |  | CC1(C)OC(c2ccc(S(C)(=O)=O)c(F)c2)=C(c2ccccc2)C1=O [Example 273]

From patent US6492416B1, “4,5-diaryl-3(2H)-furanone derivatives as cyclooxygenase-2 inhibitors” (Pacific Corporation, priority 1999, dated 2002)
